Measurements from ChEMBL document CHEMBL1201862, “PubChem BioAssay data set” (2004).
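Grown in 96-well plates, cells were treated for 48 hours with each compound at five concentrations. Insufficient inhibition: endpoint recorded as highest concentration tested. GI50 = concentration required for 50% inhibition of growth.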 The source made the active and inactive calls. No stated cut-off is given here; in the data, active = GI50 up to about 1.1 µM and inactive = higher.

Key:
Test in all cases: DTP human tumour cell line panel, 48 h
SF-295 = system: SF-295
RPMI-8226 = system: RPMI-8226
SF-539 = system: SF-539
MOLT-4 = system: MOLT-4
K562 = system: K562
CAKI-1 = system: CAKI-1
SK-OV-3 = system: SK-OV-3
A549 = system: A549
NCI-H226 = system: NCI-H226
M14 = system: M14
KM12 = system: KM12
OVCAR-4 = system: OVCAR-4
UACC-257 = system: UACC-257
U-251 = system: U-251
HT-29 = system: HT-29
UACC-62 = system: UACC-62
HCT-15 = system: HCT-15
UO-31 = system: UO-31
RXF 393 = system: RXF 393
SR = system: SR

| SMILES | GI50 (SF-295) | GI50 (RPMI-8226) | GI50 (SF-539) | GI50 (MOLT-4) | GI50 (K562) | GI50 (CAKI-1) | GI50 (SK-OV-3) | GI50 (A549) | GI50 (NCI-H226) | GI50 (M14) | GI50 (KM12) | GI50 (OVCAR-4) | GI50 (UACC-257) | GI50 (U-251) | GI50 (HT-29) | GI50 (UACC-62) | GI50 (HCT-15) [µM] | GI50 (UO-31) | GI50 (RXF 393) | GI50 (SR) |
| --- | --- | --- | --- | --- | --- | --- | --- | --- | --- | --- | --- | --- | --- | --- | --- | --- | --- | --- | --- | --- |
| CCc1ccccc1NC(=O)c1cccc([N+](=O)[O-])c1O | 5.18 µM (inactive) | 5.41 µM (inactive) | > 100 µM (inactive) | 18.6 µM (inactive) | 40.4 µM (inactive) | 25.1 µM (inactive) | 25 µM (inactive) | 24.8 µM (inactive) | 29 µM (inactive) | 47.5 µM (inactive) | 18.1 µM (inactive) | 16.7 µM (inactive) | 19.9 µM (inactive) | 23 µM (inactive) | 26.5 µM (inactive) | 9.93 µM (inactive) | 25.8 | 22.2 µM (inactive) | 8.51 µM (inactive) |  |
| CC(=O)NC1=C(NC(C)(C)C)C(=O)c2ccccc2C1=O | 42.7 µM (inactive) | 11.7 µM (inactive) | 15.8 µM (inactive) | 6.43 µM (inactive) | 7.19 µM (inactive) | 16.1 µM (inactive) | 54 µM (inactive) | 48.1 µM (inactive) | 14.5 µM (inactive) | 17.1 µM (inactive) | 30.3 µM (inactive) | 20.1 µM (inactive) | 15.9 µM (inactive) | 37 µM (inactive) | 23.2 µM (inactive) | 13.7 µM (inactive) | 17.3 | 18.2 µM (inactive) | 17.9 µM (inactive) |  |
| COc1ccc(/C(=N/O)C(c2ccc(OC)cc2)C2C(=O)Oc3ccccc32)cc1 (stereo not drawn) | 3.13 µM (inactive) | > 100 µM (inactive) | > 100 µM (inactive) | > 100 µM (inactive) | 71.4 µM (inactive) | 92 µM (inactive) | > 100 µM (inactive) | 42 µM (inactive) | 37.2 µM (inactive) | 51.3 µM (inactive) | 83.4 µM (inactive) | 48.6 µM (inactive) | 34.7 µM (inactive) | 87.5 µM (inactive) | > 100 µM (inactive) | 82 µM (inactive) | 71.6 | 35.5 µM (inactive) |  | > 100 µM (inactive) |
| COc1ccc(C(=O)N2CCc3c([nH]c4ccccc34)C2C(=O)O)o1 (stereo not drawn) | > 10 µM (inactive) | > 10 µM (inactive) | > 10 µM (inactive) | > 10 µM (inactive) | > 10 µM (inactive) | > 10 µM (inactive) | > 10 µM (inactive) | > 10 µM (inactive) |  | > 10 µM (inactive) | > 10 µM (inactive) | > 10 µM (inactive) | > 10 µM (inactive) | > 10 µM (inactive) | > 10 µM (inactive) | > 10 µM (inactive) | > 10 |  |  | > 10 µM (inactive) |
| CCCN(CCCCC(NC(C)=O)C(=O)NCc1ccccc1)C(=O)NC (stereo not drawn) | > 100 µM (inactive) | > 100 µM (inactive) | > 100 µM (inactive) | > 100 µM (inactive) | > 100 µM (inactive) | > 100 µM (inactive) | > 100 µM (inactive) | > 100 µM (inactive) | > 100 µM (inactive) | > 100 µM (inactive) | > 100 µM (inactive) | > 100 µM (inactive) | > 100 µM (inactive) | > 100 µM (inactive) | > 100 µM (inactive) | > 100 µM (inactive) | > 100 | > 100 µM (inactive) | > 100 µM (inactive) |  |
| NC(=O)CC(N)C(=O)NC(Cc1ccccc1)C(=O)NC(Cc1ccccc1)NC(=O)C(Cc1c[nH]c2ccccc12)C(=O)O (stereo not drawn) | > 100 µM (inactive) | > 100 µM (inactive) | > 100 µM (inactive) | > 100 µM (inactive) | > 100 µM (inactive) | > 100 µM (inactive) | > 100 µM (inactive) | > 100 µM (inactive) | > 100 µM (inactive) | > 100 µM (inactive) | > 100 µM (inactive) | > 100 µM (inactive) | > 100 µM (inactive) | > 100 µM (inactive) | > 100 µM (inactive) | > 100 µM (inactive) | > 100 | > 100 µM (inactive) | > 100 µM (inactive) |  |
| Cc1noc(/N=C2\C=C(O)C(=O)c3ccccc32)c1C | 11.1 µM (inactive) | 9.64 µM (inactive) | 1.04 µM (active) | 18.7 µM (inactive) | 0.206 µM (active) | 5 µM (inactive) | 8.3 µM (inactive) | 5.31 µM (inactive) | 23.8 µM (inactive) | 0.656 µM (active) | 0.254 µM (active) | 19.5 µM (inactive) | 4.19 µM (inactive) | 1.03 µM (active) | 17.6 µM (inactive) | 2.14 µM (inactive) | 11.6 | 3.18 µM (inactive) |  | 18.7 µM (inactive) |
| NNC(=O)N/N=C(/CC1(O)C(=O)Nc2ccc(Br)cc21)c1ccccc1 (stereo not drawn) | 38.6 µM (inactive) | 48.4 µM (inactive) | 23.9 µM (inactive) | 16.7 µM (inactive) | 30.5 µM (inactive) | 30.3 µM (inactive) | 40.2 µM (inactive) | 50 µM (inactive) | 82.6 µM (inactive) | 37.6 µM (inactive) | 25.7 µM (inactive) |  | 77.3 µM (inactive) | > 10 µM (inactive) | 30.6 µM (inactive) | 19.8 µM (inactive) | 61.1 | 12.5 µM (inactive) |  | 31.6 µM (inactive) |
| COc1cc([N+](=O)[O-])ccc1NC(=O)C(F)(F)F | > 100 µM (inactive) | > 100 µM (inactive) | > 100 µM (inactive) | > 100 µM (inactive) | > 100 µM (inactive) | > 100 µM (inactive) | > 100 µM (inactive) | > 100 µM (inactive) | > 100 µM (inactive) | > 100 µM (inactive) | 97.9 µM (inactive) | > 100 µM (inactive) | > 100 µM (inactive) | > 100 µM (inactive) | 65.3 µM (inactive) | 43.1 µM (inactive) | > 100 | 84.3 µM (inactive) |  | > 100 µM (inactive) |
| CCCC(=O)Oc1cc(OC(=O)CCC)c2c(C)cc(=O)oc2c1 | 78.7 µM (inactive) | 32.2 µM (inactive) | 21.8 µM (inactive) | 29 µM (inactive) | 44.9 µM (inactive) |  | > 100 µM (inactive) | 92.9 µM (inactive) | 87.7 µM (inactive) | > 100 µM (inactive) | 32.5 µM (inactive) | > 100 µM (inactive) | 83.6 µM (inactive) | 78.3 µM (inactive) | 36.5 µM (inactive) | 66.1 µM (inactive) | > 100 | 39.6 µM (inactive) |  | 18.5 µM (inactive) |
| COC(=O)CP1(=O)OC2C(C3CCC2(C)C3(C)C)N1c1cc(C(F)(F)F)cc(C(F)(F)F)c1 (stereo not drawn) | 19.7 µM (inactive) | 15.9 µM (inactive) | 21.9 µM (inactive) | 16.7 µM (inactive) | 19.5 µM (inactive) | 24.9 µM (inactive) | 33.4 µM (inactive) | 30 µM (inactive) | 31.6 µM (inactive) | 32.3 µM (inactive) | 17.1 µM (inactive) | 13.5 µM (inactive) | 32.8 µM (inactive) | 26.1 µM (inactive) | 26.1 µM (inactive) | > 100 µM (inactive) | 24.4 | 32.9 µM (inactive) |  | 24.8 µM (inactive) |
| Cc1c(N)nc(C(CC(N)=O)NCC(N)C(N)=O)nc1C(=O)NC(C(=O)NC(C)C(O)C(C)C(=O)NC(C(=O)NCCc1nc(-c2nc(C(=O)NCCCNCCCCN)cs2)cs1)C(C)O)C(OC1OC(CO)C(O)C(O)C1OC1OC(CO)C(O)C(OC(N)=O)C1O)c1c[nH]cn1 (stereo not drawn) | 0.0731 µM (active) | > 10 µM (inactive) | 0.0655 µM (active) | 2.94 µM (inactive) | > 10 µM (inactive) | 0.00178 µM (active) | > 10 µM (inactive) | 4.81 µM (inactive) | 0.233 µM (active) | 1.67 µM (inactive) | > 10 µM (inactive) | > 6.46 µM (inactive) | > 10 µM (inactive) | > 10 µM (inactive) | > 10 µM (inactive) | 2.71 µM (inactive) | > 5.64 | 2.36 µM (inactive) | 0.29 µM (active) |  |
| O=C(CN1CCCCC1)Nc1ccc2sc3ccccc3c(=O)c2n1 | 15 µM (inactive) | 13.1 µM (inactive) | 16.4 µM (inactive) | 2.69 µM (inactive) | 5.36 µM (inactive) | 13.6 µM (inactive) | 21.3 µM (inactive) | 15 µM (inactive) |  | 17.9 µM (inactive) | 19.1 µM (inactive) | 30.1 µM (inactive) | 18.2 µM (inactive) | 16.6 µM (inactive) | 30.3 µM (inactive) | 15.4 µM (inactive) | 12.2 | 9.95 µM (inactive) |  | 21.5 µM (inactive) |
| COc1ccc(CCCNC(=O)Cc2ccccc2CO)cc1OC |  |  |  | > 100 µM (inactive) | > 100 µM (inactive) | > 100 µM (inactive) |  | > 100 µM (inactive) | > 100 µM (inactive) | > 100 µM (inactive) | > 100 µM (inactive) | > 100 µM (inactive) | > 100 µM (inactive) | > 100 µM (inactive) | > 100 µM (inactive) | > 100 µM (inactive) | > 100 | > 100 µM (inactive) |  | > 100 µM (inactive) |
| N#CC(c1nc2ccccc2nc1Cl)S(=O)(=O)c1ccccc1 (stereo not drawn) |  | 37.2 µM (inactive) | > 100 µM (inactive) | 32.4 µM (inactive) | 34.3 µM (inactive) | 51.3 µM (inactive) |  | > 100 µM (inactive) | > 100 µM (inactive) | > 100 µM (inactive) | > 100 µM (inactive) | 53.3 µM (inactive) | > 100 µM (inactive) | 83.8 µM (inactive) |  | 35.8 µM (inactive) | 54.1 | 43.8 µM (inactive) |  | > 100 µM (inactive) |
